Laboratory results: ChEMBL document CHEMBL3885861, “Open TG-GATES”

Species: Rattus norvegicus
Assay: Open TG-GATES - Regimen: Daily Repeat
Type: toxicity, organism-based, Sprague-Dawley
Set-up: regimen Daily Repeat, gender Male, age 6 weeks
Conditions: in vivo, po, 0 mg/kg, route gavage, dose level Control; for APTT / Bas / Eos / Fbg / Hb / Ht / Lym / MCH / MCHC / MCV / Mono / Neu / PT / Plat / RBC / Ret / WBC: tissue Blood; for KIDNEY_L / KIDNEY_R / KIDNEY_TOTAL: tissue Kidney; for LIVER: tissue Liver; for A/G / ALP / ALT / AST / BUN / CRE / Ca / Cl / DBIL / GLC / IP / K / LDH / Na / PL / RALB / TBIL / TC / TG / TP / gamma-GTP: tissue Plasma

## CC(C)NNC(=O)c1ccncc1 [IPRONIAZID]
72 h, time 3 day
  TERMINAL_BW: 213.5 g
  APTT: 21.8 s
  Bas: 0%
  Eos: 1%
  Fbg: 301.6 mg/dL
  Hb: 13.2 g/dL
  Ht: 38.2%
  Lym: 78.8%
  MCH: 21.2 pg
  MCHC: 34.5%
  MCV: 61.3 fL
  Mono: 2.8%
  Neu: 16.4%
  PT: 16 s
  Plat: 127.9 x10_4/uL
  RBC: 622.8 x10_4/ul
  Ret: 7.5%
  WBC: 99.6 x10_2/uL
  KIDNEY_L: 1 g
  KIDNEY_R: 1 g
  KIDNEY_TOTAL: 1.9 g
  LIVER: 10.5 g
  A/G: 1.3
  ALP: 1294.6 IU/L
  ALT: 41 IU/L
  AST: 70.2 IU/L
  BUN: 18 mg/dL
  CRE: 0.2 mg/dL
  Ca: 10.8 mg/dL
  Cl: 106.6 meq/L
  DBIL: 0 mg/dL
  GLC: 188.8 mg/dL
  IP: 7.2 mg/dL
  K: 4.6 meq/L
  LDH: 261.8 IU/L
  Na: 141.8 meq/L
  PL: 159.6 mg/dL
  RALB: 3.1 g/dL
  TBIL: 0.004 mg/dL
  TC: 83.8 mg/dL
  TG: 100.4 mg/dL
  TP: 5.5 g/dL
  gamma-GTP: 1 IU/L
[…], time 7 day
  TERMINAL_BW: 239.8 g
  APTT: 22.5 s
  Bas: 0%
  Eos: 0.8%
  Fbg: 304.6 mg/dL
  Hb: 13.5 g/dL
  Ht: 37.7%
  Lym: 82.4%
  MCH: 21 pg
  MCHC: 35.7%
  MCV: 58.6 fL
  Mono: 2.2%
  Neu: 13.8%
  PT: 15.4 s
  Plat: 110.1 x10_4/uL
  RBC: 642.8 x10_4/ul
  Ret: 6.4%
  WBC: 110.4 x10_2/uL
  KIDNEY_L: 1 g
  KIDNEY_R: 1 g
  KIDNEY_TOTAL: 2 g
  LIVER: 11.2 g
  A/G: 1.1
  ALP: 1693 IU/L
  ALT: 46.6 IU/L
  AST: 77.8 IU/L
  BUN: 19.2 mg/dL
  CRE: 0.2 mg/dL
  Ca: 10.6 mg/dL
  Cl: 106.4 meq/L
  DBIL: 0 mg/dL
  GLC: 198.4 mg/dL
  IP: 6.8 mg/dL
  K: 4 meq/L
  LDH: 220.4 IU/L
  Na: 141.2 meq/L
  PL: 156.2 mg/dL
  RALB: 2.9 g/dL
  TBIL: 0.002 mg/dL
  TC: 77.4 mg/dL
  TG: 110.6 mg/dL
  TP: 5.5 g/dL
  gamma-GTP: 1.2 IU/L
[…], time 14 day
  TERMINAL_BW: 277.2 g
  APTT: 22.8 s
  Bas: 0%
  Eos: 1%
  Fbg: 301.2 mg/dL
  Hb: 13.6 g/dL
  Ht: 39.5%
  Lym: 82.8%
  MCH: 20 pg
  MCHC: 34.4%
  MCV: 58.1 fL
  Mono: 2.4%
  Neu: 13.4%
  PT: 16 s
  Plat: 110.6 x10_4/uL
  RBC: 679.4 x10_4/ul
  Ret: 5.1%
  WBC: 106.6 x10_2/uL
  KIDNEY_L: 1.1 g
  KIDNEY_R: 1.1 g
  KIDNEY_TOTAL: 2.1 g
  LIVER: 11.8 g
  A/G: 1.1
  ALP: 1298.6 IU/L
  ALT: 35.8 IU/L
  AST: 68.4 IU/L
  BUN: 20.2 mg/dL
  CRE: 0.2 mg/dL
  Ca: 10.5 mg/dL
  Cl: 107.4 meq/L
  DBIL: 0 mg/dL
  GLC: 187.4 mg/dL
  IP: 5.9 mg/dL
  K: 4 meq/L
  LDH: 176.8 IU/L
  Na: 141.8 meq/L
  PL: 135.2 mg/dL
  RALB: 3 g/dL
  TBIL: 0.006 mg/dL
  TC: 66.8 mg/dL
  TG: 126.6 mg/dL
  TP: 5.7 g/dL
  gamma-GTP: 1.6 IU/L
[…], time 28 day
  TERMINAL_BW: 363.7 g
  APTT: 25.2 s
  Bas: 0%
  Eos: 0.8%
  Fbg: 318.6 mg/dL
  Hb: 14.5 g/dL
  Ht: 40.9%
  Lym: 81.6%
  MCH: 19.7 pg
  MCHC: 35.6%
  MCV: 55.2 fL
  Mono: 1.8%
  Neu: 14.6%
  PT: 15.8 s
  Plat: 108.3 x10_4/uL
  RBC: 741.4 x10_4/ul
  Ret: 3%
  WBC: 103.1 x10_2/uL
  KIDNEY_L: 1.4 g
  KIDNEY_R: 1.4 g
  KIDNEY_TOTAL: 2.8 g
  LIVER: 15.8 g
  A/G: 1.1
  ALP: 1067.8 IU/L
  ALT: 38.8 IU/L
  AST: 65.4 IU/L
  BUN: 17.4 mg/dL
  CRE: 0.2 mg/dL
  Ca: 10.7 mg/dL
  Cl: 105.2 meq/L
  DBIL: 0.002 mg/dL
  GLC: 190.8 mg/dL
  IP: 6.6 mg/dL
  K: 4 meq/L
  LDH: 171.2 IU/L
  Na: 142 meq/L
  PL: 142.4 mg/dL
  RALB: 3.2 g/dL
  TBIL: 0.014 mg/dL
  TC: 70.8 mg/dL
  TG: 137.6 mg/dL
  TP: 6.1 g/dL
  gamma-GTP: 1.6 IU/L
